Several values for one entry are separate records, joined by “and”; a condition that tells them apart may be missing. Identical values can stand only once.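 Growth conditions: 96-well plates. Treatment: test compound, 48 hours, 5 concentrations. Analysis: linear interpolation between bracketing concentrations; unreached endpoints set to highest concentration. GI50: concentration for 50% inhibition of growth. At the TGI there is no net growth.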
Experiments:
Assay in all cases: DTP human tumour cell line panel, 48 h
NCI-H226 lung = tested on: NCI-H226 lung
MDA-N = tested on: MDA-N
SK-MEL-2 melanoma = tested on: SK-MEL-2 melanoma
SNB-75 CNS = tested on: SNB-75 CNS
SW-620 colon = tested on: SW-620 colon
SK-MEL-5 melanoma = tested on: SK-MEL-5 melanoma
M14 melanoma = tested on: M14 melanoma
NCI/ADR-RES ovarian = tested on: NCI/ADR-RES ovarian
MDA-MB-435 = tested on: MDA-MB-435
IGROV1 ovarian = tested on: IGROV1 ovarian

Compound	TGI (NCI-H226 lung) [µM]	TGI (MDA-N)	TGI (SK-MEL-2 melanoma)	TGI (SNB-75 CNS) [µM]	TGI (SW-620 colon)	TGI (SK-MEL-5 melanoma)	TGI (M14 melanoma)	TGI (NCI/ADR-RES ovarian)	TGI (MDA-MB-435)	TGI (IGROV1 ovarian)	GI50 (MDA-N) [µM]	GI50 (SK-MEL-2 melanoma) [µM]	GI50 (SW-620 colon) [µM]	GI50 (SK-MEL-5 melanoma) [µM]	GI50 (M14 melanoma) [µM]	GI50 (NCI/ADR-RES ovarian) [µM]	GI50 (IGROV1 ovarian) [µM]	GI50 (MDA-MB-435) [µM]
O=c1cccc2n1CC1CNCC2C1 (centres undefined)	> 100	> 100 µM	> 100 µM	> 100	> 100 µM	> 100 µM	> 100 µM	> 100 µM	> 100 µM									
C[C@@](Br)(C(=O)O)[C@H](Br)C(=O)O	> 100	> 100 µM		> 100	> 100 µM	> 100 µM	> 100 µM	> 100 µM	> 100 µM	> 100 µM								
COc1ccccc1Cn1c2c(c3cc(O)ccc31)C(=O)c1ccccc1C2=O	79	> 100 µM	> 100 µM	58.8	> 100 µM	> 100 µM	> 100 µM	40.4 µM	> 100 µM	> 100 µM								
Cn1c2ccccc2c2c3c(=O)[nH][nH]c(=O)c3c3c4ccccc4n(C)c3c21	> 100	> 100 µM	> 100 µM	> 100	> 100 µM	> 100 µM	> 100 µM	> 100 µM	> 100 µM	> 100 µM								
Brc1ccc(/C(N=N/C(=N\Sc2ccccc2)c2ccc(Br)cc2)=N/Sc2ccccc2)cc1	> 100	> 100 µM	> 100 µM	> 100	> 100 µM	> 100 µM	> 100 µM	> 100 µM	> 100 µM	> 100 µM								
COc1cc2c3cc1Oc1cc(ccc1O)C[C@@H]1c4c(cc(OC)c(O)c4Oc4ccc(cc4)C[C@@H]3[N+](C)(C)CC2)CC[N+]1(C)C	> 100	> 100 µM	> 100 µM		> 100 µM	> 100 µM	30.4 µM	> 100 µM	> 100 µM	> 100 µM								
Cc1ccc(S(=O)(=O)N2CCc3cc(O)c([N+](=O)[O-])cc32)cc1	> 100	> 100 µM	> 100 µM	> 100	> 100 µM	> 100 µM	> 100 µM	> 100 µM	> 100 µM	> 100 µM								
CCC(C)C(NC(=O)C(CCCC[N+](=N)N)NC(=O)C(CCCC[N+](=N)N)NC(=O)c1ccc(OC)cc1)C(=O)NC(CCCC[N+](=N)N)C(=O)N1CCCC1C(=O)NC(CCCCN)C(=O)NC(CC(C)C)C(N)=O (centres undefined)	> 100	> 100 µM		> 100	> 100 µM	> 100 µM	> 100 µM	> 100 µM	> 100 µM									
CC1=NN(c2cccc(Cl)c2)C2(C1=Cc1ccc(N(C)C)cc1)C(Cl)C(=O)N2c1nc2ccccc2s1 (centres undefined)	> 100	> 100 µM	> 100 µM		> 100 µM	> 100 µM	> 100 µM	> 100 µM	72.3 µM	> 100 µM								
O=C1CCC(CCc2nc3ccccc3[nH]2)(c2ccccc2)C(=O)N1 (centres undefined)	> 100	> 100 µM	> 100 µM	> 100	> 100 µM	> 100 µM	> 100 µM	> 100 µM	> 100 µM	> 100 µM								
O/N=C/[C@H]1COC2(CCCCC2)O1	> 100	> 100 µM	> 100 µM	> 100	> 100 µM	> 100 µM	> 100 µM	> 100 µM	> 100 µM	> 100 µM								
O=C(O)CCSc1ncnc2nc[nH]c12	> 100	> 100 µM	> 100 µM		> 100 µM	> 100 µM	> 100 µM	> 100 µM	> 100 µM	> 100 µM								
COC(=O)c1ccc2cc(O)ccc2c1	> 100	> 100 µM	> 100 µM		> 100 µM	> 100 µM	> 100 µM	> 100 µM	> 100 µM	> 100 µM								
C=CCN(c1cc(OC)c2[nH]c(C(=O)O)c(C)c2c1[N+](=O)[O-])S(C)(=O)=O	> 100	> 100 µM	> 100 µM	> 100	> 100 µM	> 100 µM	> 100 µM	> 100 µM	> 100 µM	> 100 µM								
O=C(CCl)Nc1ccc(C(=O)N/N=C/c2ccc(Cl)cc2)cc1	35.3	3.69 µM and 24.3 µM	4.14 µM and 14.7 µM	30.5	6.81 µM and 7.06 µM	4.45 µM and 13.6 µM	3.42 µM and 18.3 µM	8 µM and 3.38 µM	3.27 µM and 21.7 µM	3.86 µM and 2.34 µM	11	2.28	3.35	2.14	1.89	1.5	1.85	9.67
CC1OC2OC3C(OCC(O)C3O)OC(=O)[C@]34CCC(C)(C)CC3C3=CCC5[C@@]6(C)C[C@H](O)[C@H](OC7OC(CO)C(O)C(O)C7OC7OC(COC(=O)CC(C)(O)CC(=O)OC1C(OC1OC(CO)C(O)C(O)C1O)C2O)C(O)C(O)C7O)[C@@](C)(CO)C6CC[C@@]5(C)[C@]3(C)CC4 (some centres undefined)	22.7	2.65 µM	3.37 µM	6.79	11.2 µM	0.272 µM	8.44 µM	11.7 µM	4.71 µM	11.8 µM								
CCC1(c2ccc(OC)c(OC)c2)CCN2C(=O)C(O)CC21 (centres undefined)	> 100	> 100 µM	> 100 µM	> 100	> 100 µM	> 100 µM	> 100 µM	> 100 µM	> 100 µM	> 100 µM								
CC(=O)Nc1ccc2c(c1)nc1c3ccccc3ccn21	> 100	> 100 µM	> 100 µM	> 100	> 100 µM	> 100 µM	> 100 µM	> 100 µM	> 100 µM	> 100 µM								
CC1=CC(O)CC(C)(C)C1/C=C/C(C)=C/C=C/C(C)=C/C=C/C=C(C)/C=C/C=C(C)/C=C/C1=C(C)CC(O)CC1(C)C (centres undefined)	41.4	37.8 µM	68.8 µM	> 100	34.8 µM	32.7 µM	29.8 µM	59.8 µM	33.9 µM	66.3 µM								
CCOC(=O)C(NC(=O)CC)(Nc1ccccc1F)C(F)(F)F (centres undefined)		> 100 µM	> 100 µM	> 100	> 100 µM	> 100 µM	> 100 µM	> 100 µM	> 100 µM	> 100 µM								
